“And” between values parts separate entries of the source, which are not always exact repeats. Identical values can stand only once. Some results are limits rather than exact numbers.

The target of experiment [1] is Glycogen synthase kinase-3 alpha (Homo sapiens, UniProt P49840). Description: TR-FRET Assay. In short, it runs like this:
(§1)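 Signal is measured as TR-FRET between a terbium anti-phospho-Ser641 antibody and streptavidin-d2, added after an EDTA quench. Compounds are preincubated 30 min in assay buffer.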
(In general: In TR-FRET formats the signal depends on donor and acceptor labels being close together.)

Experiment [2] deals with Glycogen synthase kinase-3 beta (Homo sapiens, UniProt P49841). Kind of experiment: TR-FRET Assay. In short, it runs like this: as §1
Chain of Glycogen synthase kinase-3 beta (P49841 whole entry): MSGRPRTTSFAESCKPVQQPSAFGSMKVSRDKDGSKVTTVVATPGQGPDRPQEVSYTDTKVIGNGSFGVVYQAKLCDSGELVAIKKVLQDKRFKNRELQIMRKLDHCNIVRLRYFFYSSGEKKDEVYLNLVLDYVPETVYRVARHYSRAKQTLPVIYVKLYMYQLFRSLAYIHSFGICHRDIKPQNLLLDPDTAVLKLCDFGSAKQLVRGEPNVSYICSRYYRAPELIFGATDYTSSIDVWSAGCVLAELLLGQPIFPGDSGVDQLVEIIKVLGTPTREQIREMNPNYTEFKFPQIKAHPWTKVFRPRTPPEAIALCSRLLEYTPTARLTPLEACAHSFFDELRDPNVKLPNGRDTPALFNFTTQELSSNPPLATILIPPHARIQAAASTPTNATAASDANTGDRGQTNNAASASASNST

Chain of Glycogen synthase kinase-3 alpha (P49840 whole entry): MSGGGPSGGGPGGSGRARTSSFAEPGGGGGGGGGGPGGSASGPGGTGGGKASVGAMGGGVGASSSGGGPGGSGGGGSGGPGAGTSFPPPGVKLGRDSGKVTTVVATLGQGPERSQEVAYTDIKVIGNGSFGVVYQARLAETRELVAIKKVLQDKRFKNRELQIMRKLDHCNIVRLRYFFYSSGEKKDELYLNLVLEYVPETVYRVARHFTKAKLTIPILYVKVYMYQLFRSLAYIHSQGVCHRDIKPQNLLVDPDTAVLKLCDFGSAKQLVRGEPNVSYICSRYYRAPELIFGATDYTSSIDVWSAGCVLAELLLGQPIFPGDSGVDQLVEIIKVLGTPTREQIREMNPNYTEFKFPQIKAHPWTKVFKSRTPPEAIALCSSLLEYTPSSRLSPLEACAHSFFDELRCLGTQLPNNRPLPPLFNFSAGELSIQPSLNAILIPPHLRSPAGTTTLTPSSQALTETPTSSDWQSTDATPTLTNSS

Take `CCC1(c2cccc(C(F)(F)F)c2)C2=C(CC(C)(C)CC2=O)NC2N=NC(C(F)(F)F)=C21` (stereo not drawn) [US20250313563, Compound 789584]: the IC50 (in general, the concentration that gives 50% inhibition) in experiment [1] fell in the range of 100 to 1000 nM; in experiment [2] it was 1000 to 5000 nM.
As to `CCC1(c2cccc(S(C)(=O)=O)c2)C2=C(CC(C)(C)NC2=O)NC2N=NC(C(F)(F)F)=C21` (stereo not drawn) [US20250313563, Compound 947799], the IC50 in experiment [1] and in experiment [2] was under 100 nM each time.
Consider `CC[C@H]1CCN1c1cccc([C@@]2(CC)C3=CN=NC3NC3=C2C(=O)CC(C)(C)C3)c1` (stereo partly drawn) [US20250313563, Compound 911969], for which the values for the IC50 in experiment [1] and in experiment [2] were under 100 nM and 100 to 1000 nM, respectively.
As to `CC[C@]1(c2cccc(Cl)c2)C2=C(CC(C)(C)CC2=O)NC2N=NC(C(F)(F)F)=C21` (stereo partly drawn) [US20250313563, Compound 801308], the IC50 in experiment [1] was under 100 nM; in experiment [2], < 100 nM and 100 to 1000 nM.
Regarding `CC[C@]1(c2cccc(OC)c2)C2=C(CC(C)(C)NC2=O)NC2N=NC(C)=C21` (stereo partly drawn) [US20250313563, Compound 949328], the results for the IC50 in experiment [1] and in experiment [2] were 1000 to 5000 nM and over 5000 nM, respectively.
For `CC[C@@]1(c2cccc(C(F)(F)F)c2)C2=CN=NC2NC2=C1C(=O)C[C@]1(CCN(C)C1=O)C2` (stereo partly drawn) [US20250313563, Compound 950325] the same measures were over 5000 nM and over 5000 nM.
In the case of `CC[C@]1(c2cccc(C(F)F)c2)C2=CN=NC2NC2=C1C(=O)CC(C)(C)C2` (stereo partly drawn) [US20250313563, Compound 826717], the IC50 in experiment [1] was < 100 nM and 100 to 1000 nM; in experiment [2] it was < 100 nM and 1000 to 5000 nM.
For the molecule `CCC1(c2cccc(OC)c2)C2=C(N=NC2)NC2=C1C(=O)NC(C)(C)C2` (stereo not drawn) [US20250313563, Compound 948296], the values for the IC50 in experiment [1] and in experiment [2] were 100 to 1000 nM and 1000 to 5000 nM, respectively.
The like results for `Cc1cc(C)cc(C(=O)N2CC3(C2)C[C@]2(CO3)C3=C(N=NC3)NC3=C2C(=O)CC(C)(C)C3)c1` [US20250313563, Compound 948222] were, in that order, 100 to 1000 nM and 1000 to 5000 nM.
For `CC1(C)CC(=O)C2=C(C1)NC1=C(CN=N1)[C@@]21COC2(CN(S(C)(=O)=O)C2)C1` [US20250313563, Compound 913057] the same measures were under 100 nM and under 100 nM.
The like results for `Cc1cccc2c1CC[C@]21C2=C(N=NC2)NC2=C1C(=O)CC(C)(C)C2` [US20250313563, Compound 913137] were, in that order, over 5000 nM and over 5000 nM.
In the case of `CCC1(c2cccc(N3CCCCC3)c2)C2=C(CC(C)(C)CC2=O)NC2N=NC(C)=C21` (stereo not drawn) [US20250313563, Compound 877311], the IC50 in experiment [1] and in experiment [2] was under 100 nM each time.
As to `CC[C@@]1(c2cccc(-c3ccnc(N(C)C)c3)c2)C2=C(CC(C)(C)CC2=O)NC2N=NC(C)=C21` (stereo partly drawn) [US20250313563, Compound 913021], the IC50 in experiment [1] and in experiment [2] was under 100 nM throughout.
As for `CC[C@@]1(c2cccc(Oc3ncccn3)c2)C2=C(CC(C)(C)NC2=O)NC2N=NC(F)=C21` (stereo partly drawn) [US20250313563, Compound 951944], the IC50 in experiment [1] is 1000 to 5000 nM; in experiment [2], over 5000 nM.
The like results for `CCC1(c2cccc(C3CCOCC3)c2)C2=CN=NC2NC2=C1C(=O)CC(C)(C)C2` (stereo not drawn) [US20250313563, Compound 791273] were, in that order, under 100 nM and 100 to 1000 nM.
The like results for `CCC1(c2cccc(C(F)(F)F)c2)C2=CN=NC2NC2=C1C(=O)NC(C(C)(C)C)C2` (stereo not drawn) [US20250313563, Compound 945635] were, in that order, under 100 nM and 100 to 1000 nM.
The like results for `CCN(c1cccc(C2(CC)C3=CN=NC3NC3=C2C(=O)CC(C)(C)C3)c1)c1cccnc1C` (stereo not drawn) [US20250313563, Compound 885367] were, in that order, 100 to 1000 nM and 1000 to 5000 nM.
For the molecule `CCC1(c2cccc(-c3ccnc(C)c3F)c2)C2=C(CC(C)(C)NC2=O)NC2N=NC(C(F)(F)F)=C21` (stereo not drawn) [US20250313563, Compound 948297], the IC50 in experiment [1] and in experiment [2] was under 100 nM in each case.
Take `CC1(C)CC(=O)C2=C(C1)NC1=C(CN=N1)[C@@]21CO[C@H](c2ccccc2)C1` [US20250313563, Compound 946072]: the values for the concentration for half-maximal inhibition (IC50) in experiment [1] and in experiment [2] were under 100 nM and 100 to 1000 nM, respectively.
